Key:
thrombin [1] = target: T1, thrombin (Homo sapiens, UniProt P00734); test: Thrombin amidolytic assay (FIGS. 1 to 3): neutralisation of TRI 50c inhibition of thrombin; type: biochemical; details: for neutralising the effect of TRI 50c (thrombin activity restored): added after 100 nM TRI 50c; for TRI 50c neutralising activity: FIG. 2, cholesterol linoleic acid esters and free linoleic acids, stereoisomers; for neutralising ability against TRI 50c: FIG. 3, over 30 minutes
T1 construct: purchased Haematologic Technologies Inc
Description: Peptide boronate inhibitors were synthesised by Trigen Limited. Thrombin was obtained from Haematologic Technologies Inc. Chromogenic substrate was obtained from Quadratech. Linoleic acid analogues were obtained from Cayman Chemicals USA. Buffer reagents were obtained from Merck.
Peptide boronate inhibitor of thrombin (TRI 50c, 100 nM) was incubated with thrombin (33.3 ng/ml) in assay buffer (100 mM sodium phosphate, 200 mM NaCl, 0.5% PEG 6000 and 0.02% sodium azide, pH 7.5) for 5 minutes at 37° C. Test compounds were then added and incubated for various amounts of time prior to the addition of S2238 chromogenic substrate (5 uM). The reaction was followed at […] and 37° C. using a Thermomax kinetic plate reader (Molecular Devices Corporation). Results of the assay are expressed as percentage activities of thrombin relative to that seen in the absence of inhibitor or antidote.

thrombin [2] = test: IC50 values: percentage reversal of TRI 50c inhibition of thrombin by hydroxy fatty acid; type: biochemical; details: thrombin 33.3 ng/ml, TRI 50c 300 nM final, 30 minutes at 37° C., S2238
Description: 50 μl thrombin (33.3 ng/ml in assay buffer) and 20 μl TRI 50c (300 nM final) were added to 10 μl assay buffer (100 mM Na orthophosphate (80% Na2HPO4 and 20% NaH2PO4), 200 mM NaCl, 0.5% PEG 6000, 0.02% Na azide, pH 7.5) and incubated for 5 minutes at 37° C. After the incubation period 100 μl of hydroxy fatty acid was added and further incubated for 30 minutes at 37° C. […] Results were expressed as percentage reversal of TRI 50c inhibition.

[3] = Assay for deboronation (LCMS of TGN 255/9(S)-HODE mixture); details: TGN 255 6.7 mg/ml, 9(S)-HODE 0.01 mg/ml, 37° C. 30 mins, then room temperature overnight; uv chromatogram and mass
Description: This Example relates to a method for detecting the amount of deboronation of a product, TRI 50, in the presence of 9-HODE. A proposed mechanism for the degradation of TRI 50 is shown below.
The thrombin buffer was made up of 100 mM NaOphosphate [80% Na2HPO4 (11.36 g/l anhydrous)+20% NaH2PO4 (2.4 g/l anhydrous)], 200 mM NaCl (11.688 g/l), 0.5% PEG 6000 (5 g/l), 0.02% Na azide (0.2 g/l), pH 7.5.
TGN 255 (20 mg) was dissolved in DMSO (1.9 ml). To this was added thrombin buffer (0.8 ml), followed by 9(S)-HODE (supplied by Cayman Chemical) in thrombin buffer (0.3 ml, 337 uM). The solution was incubated at 37° C. for 30 mins.
Samples of TGN 255 (14 mg/ml in methanol) and Impurity I (5.6 mg/ml in methanol) were prepared as standards. The 9(S)-HODE assay sample was allowed to stand at room temperature overnight and analysed the following day.

[4] = Neutralisation by cholesteryl linoleate hydroperoxide (residual TRI-50b concentration)
Description: Cholesteryl linoleate hydroperoxide (44 μM) was incubated with TRI-50b in the range 0 to 4.9 mM. Samples were taken at timed intervals and the residual TRI-50b concentration was determined by Method C (Materials and Methods).

Row | Compound | IC50 (thrombin [2]) [µM] | other results
1 | 9,13- hydroxy cholesterol linoleic acid ester [9/13-CLOH] |  | neutralising the effect of TRI 50c (thrombin activity restored) (thrombin [1]; FIG. 1): effective in neutralising the effect of TRI 50c
2 | CCCCC/C=C\C/C=C\C/C=C\C=C\C(O)CCCC(=O)O (racemic) [(+/−)5-HETE] | > 30 | 
3 | CCCCC/C=C\C/C=C\CC(O)C(O)C/C=C\CCCC(=O)O (racemic) [(+/−)8,9-DIHETRE] | > 30 | 
4 | CCCCC/C=C\C/C=C\C=C\C(O)C/C=C\CCCC(=O)O (racemic) [(+/−)8-HETE] | > 30 | 
5 | CCCCC/C=C\C=C\C(O)CCCCCCCCCC(=O)O (racemic) [(+/−)11-HEDE] | > 30 | 
6 | C[C@H]1CCC/C=C/C2C[C@H](O)CC2[C@H](O)/C=C/C(=O)O1 (single isomer, unassigned; (+)) [(+)-Brefeldin A, reference compound] | > 30 | 
7 | COC(=O)[C@H]1CC2CCC1[C@@H](O)C2 (stereo in doubt) [Methyl 6-hydroxybicyclo[2.2.2]octane-2-carboxylate, reference compound] | > 30 | 
8 | CCCCC/C=C\C/C=C\C/C=C\C=C\[C@H](CCCC(=O)O)OO [5(S)-HPETE] | 25 | 
9 | CC/C=C\C/C=C\C/C=C\C=C\[C@@H](O)C/C=C\CCCC(=O)O [8(S)-HEPE, 8(S)-hydroxy-5Z, 9E, 11Z, 14Z, 17Z-eicosapentaenoic acid] | 14 | 
10 | CCCCC/C=C\C/C=C\C=C\[C@@H](O)CCCCCCC(=O)O [8(S)-HETRE, 8(S)-hydroxy-9E, 11Z, 14Z-eicosatrienoic acid] | 16 | 
11 | CCCCC/C=C\C=C\[C@H](O)CCCCCCCC(=O)O [9(R)-HODE] | > 30 | 
12 | CCCCC/C=C\C=C\[C@@H](O)CCCCCCCC(=O)OC1CC[C@@]2(C)C(=CCC3C4CCC(C(C)CCCC(C)C)[C@@]4(C)CCC32)C1 (stereo partly drawn) [9(S)-HODE cholesteryl ester] | 4.4 | TRI 50c neutralising activity (thrombin [1]): particularly good; neutralising ability against TRI 50c (thrombin [1]): very good
13 | CCCCC/C=C\C=C\[C@@H](O)CCCCCCCC(=O)O [9(S)-HODE, 9(S)-hydroxy-10E,12Z-octadecadienoic acid] | 12 | deboronation/degradation of TGN 255 to Impurity I [3]: degradation has occurred; TRI 50c neutralising activity (thrombin [1]): particularly good; neutralising ability against TRI 50c (thrombin [1]): particularly good effect
14 | CC/C=C\C/C=C\C=C\[C@@H](O)CCCCCCCC(=O)O [9(S)-HOTRE] | > 30 | 
15 | CCCCC/C=C\C=C\[C@H](CCCCCCCC(=O)O)OO [9(S)-HpODE, 9-(S)-hydroperoxy-10E,12Z-octadecadienoic acid] | > 30 | 
16 | CCCCCC=CC=CC(O)CCCCCCCC(=O)O[C@H]1CC[C@@]2(C)C(=CC[C@H]3[C@@H]4CC[C@H]([C@H](C)CCCC(C)C)[C@@]4(C)CC[C@@H]32)C1 (stereo partly shown) [9-CLOH, 9-hydroxy cholesterol linoleic acid ester] |  | neutralising the effect of TRI 50c (thrombin activity restored) (thrombin [1]; FIG. 1): effective in neutralising the effect of TRI 50c
17 | CCCCC[C@@H](/C=C/C=C\CCCCCCCC(=O)O)OO [13(S)-HpODE, 13(S)-hydroperoxy-octadecadienoic acid] |  | TRI 50c neutralising activity (thrombin [1]): particularly good
18 | CC1(C)[C@@]2(C)CC[C@]1(C)[C@H](CC(=O)O)[C@H]2O [(−)-Isoborneolacetic Acid, reference compound] | > 30 | 
19 | COCCC[C@H](NC(=O)[C@@H]1CCCN1C(=O)[C@@H](Cc1ccccc1)NC(=O)OCc1ccccc1)B(O)O [TRI 50c, Cbz-(R)-Phe-(S)-Pro-(R)-Mpg-B(OH)2, reference compound] |  | thrombin activity as compared with the control (no TRI 50c present) (thrombin [1]; FIG. 1, addition of 100 nM TRI 50c, thrombin 33.3 ng/ml, S2238 substrate): approximately 50%
20 | cholesterol hydroperoxylinoleic acid ester [CLOOH] |  | equivalence of neutralisation ([4]; 44 μM cholesteryl linoleate hydroperoxide mixed with TRI-50b): approximately 1 mole/mole; rate of neutralisation of TRI-50b ([4]; 44 μM cholesteryl linoleate hydroperoxide, TRI-50b 0 to 4.9 mM): high rate of neutralisation; neutralising the effect of TRI 50c (thrombin activity restored) (thrombin [1]; FIG. 1): effective in neutralising the effect of TRI 50c; TRI 50c neutralising activity (thrombin [1]): particularly good

Source: US20100022646A1, “METHOD OF NEUTRALISING ORGANOBORONATES WITH ACIDS” (priority 2004, published 2010)
